The test system of one data set is Pf 3D7. It counts as cell-based. Conditions: Plasmodium falciparum, 3D7, read-out: Pf3D7 IC50±SD.
The next data set has as its system PfDd2. The class given is cell-based. Conditions: Plasmodium falciparum, read-out: PfDd2 IC50±SD.
Data set [1] deals with heme detoxification in Pf NF54 trophozoites. Nature of the data set: Pyridine-based cellular heme fractionation assay. The class given is cell-based, Plasmodium falciparum. Conditions: Pf NF54, 1.5 to 2.5 × IC50.
The subject of the next data set is Pf Dd2 clone B2 (Dd2-B2). The class given is cell-based, Plasmodium falciparum. The following applies: triplicate flasks of 2 × 10^9 Dd2-B2 parasites, 3× to 5× IC50.
The subject of the next data set is Pf_Polδ. It counts as cell-based, Plasmodium falciparum. Conditions: Pf_Polδ parasites exposed to 45 nM (3 × IC50).
Data set [2] deals with compound 1-resistant clones Fl2-C4 and Fl3-C3. The class given is cell-based, Plasmodium falciparum. Conditions: clones Fl2-C4 and Fl3-C3, standard 72 h drug-response assay.
In data set [3] the test system is FCB WT and FCB KD parasite lines. The data set can be described thus: Potency against FCB lines with different pfmdr1 copy numbers. It counts as cell-based, Plasmodium falciparum. The following applies: FCB WT (two copies of pfmdr1) versus FCB KD (one functional copy).
Data set [4] is described as follows: Snapshot in vivo PK, dried blood spots, LC-MS/MS. Conditions: mouse, po; for k el: ke.
The conditions of data set [5]: human, 5 h, 1 μM, pH 7.4.
The test system of the next data set is HepG2. The following applies: read-out: HepG2 IC50; cytotoxicity; previously published ref 7 (Leven et al.); cited from earlier work.
Setting [6] is: 4 × 30 mg/kg oral, monitored up to 30 days.

Where two headings read alike, the source gives them in different places.

With `CCCCN(CCCC)CC(O)c1cc(Cl)cc2c1-c1ccc(Cl)cc1/C2=C/c1ccc(Cl)cc1` (centres unmarked) [LUM, Lumefantrine, reference compound], the “cured (number of parasite-free mice on day 30)” value in the data set on Plasmodium berghei (4 × 30 mg/kg oral) was 3/3.
A word on the IC50: it is the concentration at which inhibition is half-maximal. `CCN(CC)CCCC(C)Nc1ccnc2cc(Cl)ccc12` (centres unmarked) [CQ, Chloroquine]: the IC50 in the data set with Pf 3D7 came out at 6 ± 2 nM; in the data set with PfDd2, 230 ± 100 nM. Besides, the “cured (number of parasite-free mice on day 30)” value with Plasmodium berghei (4 × 30 mg/kg oral) is listed as 0/10.
The AUC(0-inf) is total exposure, with the tail of the curve extrapolated. A word on the AUC(0-t): it is exposure summed from dosing to a finite time, without extrapolation to infinity. Higher therefore signals high exposure. In general, half-life refers to the time in which the quantity being followed falls by half. For the molecule `COc1ccc(/N=C(\N)CC(O)c2cc3c(F)cc(F)cc3c3cc(C(F)(F)F)ccc23)cc1.Cl` (centres unmarked) [Compound 22, (Z)-3-(1,3-Difluoro-6-(trifluoromethyl)phenanthrene-9-yl)-3-hydroxy-N′-(4-methoxyphenyl)propanimidamide Hydrochloride], the “inhibition of hemoglobin degradation” value in data set [1] was “some inhibition of hemoglobin degradation”. The “outcome of resistance selection” value in the data set on Pf Dd2 clone B2 (Dd2-B2) was “no viable parasites after 60 days”; in the data set on Pf_Polδ, “unable to readily generate resistant parasites”. In addition, in data set [2], the “shift in IC50 value in compound 1-resistant clones” value was found to be 1.6 fold. Besides, the “effect of pfmdr1 copy number on sensitivity” value in data set [3] is “the decrease from two to one pfmdr1 copy caused a further sensitization”. The results for the cure rate in the data set with Plasmodium berghei (30 mg/kg once daily oral for 4 consecutive days) and with Plasmodium berghei (50 mg/kg once daily oral for 4 consecutive days) were 33% and 66%, respectively. Besides, the “MSD (mean survival time)” value is “euthanized” in the data set with Plasmodium berghei (4 × 3 mg/kg oral) and 28 days in the data set on Plasmodium berghei (setting [6]). Further, the “cured (number of parasite-free mice on day 30)” value with Plasmodium berghei (4 × 3 mg/kg oral) is reported as 0/3; in the data set on Plasmodium berghei (4 × 10 mg/kg oral) it was 0/3; in the data set on Plasmodium berghei (4 × 30 mg/kg oral) it was 1/3; with Plasmodium berghei (4 × 50 mg/kg oral), 2/3. Further, the “signs of toxicity during the in vivo studies” value in the data set with Plasmodium berghei (mice, oral doses 3-50 mg/kg) is reported as “no obvious signs of toxicity”. Further, the AUC(0-inf) in data set [4] (3 mg/kg) came out at 30 ng·h/mL; in data set [4] (10 mg/kg), 365 ng·h/mL; in data set [4] (30 mg/kg) it was 1310 ng·h/mL. The figures for the AUC(0-t) in [4] (3 mg/kg), in data set [4] (10 mg/kg) and in data set [4] (30 mg/kg) were 28.9 ng·h/mL, 361 ng·h/mL and 1080 ng·h/mL, respectively. The half-life in [4] (3 mg/kg) is 5.49 h; in data set [4] (10 mg/kg) it was 5.26 h; in data set [4] (30 mg/kg) it was 9.95 h. Further, the k el in data set [4] (3 mg/kg, single oral dose 3 mg/kg, mouse I) was 3.69e-05 s⁻¹; in data set [4] (3 mg/kg, single oral dose 3 mg/kg, mouse II) it was 3.51e-05 s⁻¹; in [4] (10 mg/kg, single oral dose 10 mg/kg, mouse I), 4.66e-05 s⁻¹; in [4] (10 mg/kg, single oral dose 10 mg/kg, mouse II) it was 3.66e-05 s⁻¹; in [4] (30 mg/kg, single oral dose 30 mg/kg, mouse I), 1.94e-05 s⁻¹; in data set [4] (30 mg/kg, single oral dose 30 mg/kg, mouse II), 2.74e-05 s⁻¹.
Consider `C[C@H]1[C@H](OC(=O)CCC(=O)O)O[C@@H]2O[C@@]3(C)CC[C@H]4[C@H](C)CC[C@@H]1[C@@]24OO3` [AS, artesunate, reference compound], for which the “cured (number of parasite-free mice on day 30)” value in the data set on Plasmodium berghei (4 × 30 mg/kg oral) was 0/10.
Molecule `CCCCN(CCCC)CCC(O)c1cc2c(Cl)cc(Cl)cc2c2cc(C(F)(F)F)ccc12` (centres unmarked) [HF, Halofantrine] came in with a plasma protein binding in data set [5] of 100%.
For `Cl.N/C(CC(O)c1c2ccccc2cc2ccccc12)=N\c1ccc(F)cc1` (centres unmarked) [Compound 23, (Z)-3-(Anthracene-9-yl)-N′-(4-fluorophenyl)-3-hydroxypropanimidamide Hydrochloride], the “cured (number of parasite-free mice on day 30)” value in the data set with Plasmodium berghei (4 × 50 mg/kg oral) is reported as 0/3. Also, in the data set with Plasmodium berghei (4 × 50 mg/kg oral, monitored up to 30 days), the “MSD (mean survival time)” value is on record as “euthanized”. The same molecule showed an activity with Plasmodium berghei (4 × 50 mg/kg oral, parasitemia by FACS on day 4, 50 mg/kg) of 44%.
`N/C(CC(O)c1cc2c(F)cc(F)cc2c2cc(C(F)(F)F)ccc12)=N\N=C\c1ccc(F)cc1` (centres unmarked) [Compound 1]: in [3], the “effect of pfmdr1 copy number on sensitivity” value is listed as “the decrease from two to one pfmdr1 copy caused a further sensitization”. Moreover, the results for the “cured (number of parasite-free mice on day 30)” value with Plasmodium berghei (4 × 10 mg/kg oral), in the data set with Plasmodium berghei (4 × 30 mg/kg oral) and in the data set with Plasmodium berghei (4 × 50 mg/kg oral) were 2/3, 1/3 and 1/3, respectively. Moreover, the “MSD (mean survival time)” value with Plasmodium berghei (setting [6]) worked out at 26 days. Further, in the data set on HepG2, the IC50 is 27700 nM.

The values are drawn from paper PMC8211464 (Journal of medicinal chemistry, 2021).
